The source of these data is US10208088B1, “Low molecular polypeptide ZY4 and applications thereof” (Sichuan Synlight Biotech Ltd., priority 2015, dated 2019).

One assay concerns Bacillus subtilis. The settings on record: 37° C., 24 h.
Assay [1] relates to Staphylococcus haemolyticus (09A4394 anti-ampicillin). To be noted: 37° C., 24 h.
Protocol: (§5) Prepare Escherichia coli, Candida albicans, Staphylococcus aureus, Bacillus subtilis, Staphylococcus haemolyticus, Staphylococcus epidermidis, Staphylococcus cohnii solutions respectively, incubate at 37° C. for 18 h, for standby;
(§6) Prepare Broth Agar Medium, and sterilize it for standby;
(§7) Dissolve the Broth Agar Medium, cool down to 50° C., add 1 ml of Escherichia coli, Candida albicans, Staphylococcus aureus, Bacillus subtilis, Staphylococcus haemolyticus, Staphylococcus epidermidis, Staphylococcus cohnii solutions respectively, shake gently and pour into a sterile petri dish, gently shake the medium to evenly pave on the dish;
(§8) Place the filters into a cooled dish using a sterile tweezer orderly, cover with a tile cover and mark, then place to a 37° C. incubator for incubation for 24 h;
The next assay relates to liver cancer cell HepG2. The settings on record: NS control 1.0. The protocol: 1. Collect the liver cancer cell HepG2 in the logarithmic phase to prepare cell suspension, adjust its concentration to 5×10^6-10×10^6/ml, add 100 ul to each hole, pave the plate to adjust the cell density to 1000-10000 holes; fill the holes on the edges with sterile PBS;
(§1) 2. Incubate cells under the condition of 5% CO2 and 37° C. until the cell monolayer are paved on 96-hole plate bottom; after cell adhesion for 2-12 h, add the low molecular polypeptide ZY4 at a concentration of 100 ug/ml and 200 ug/ml, and the same volume of NS as control, to incubate for 16-48 h under the condition of 5% CO2 and 37° C., and then observe under an inverted microscope;
(§2) 3. Add 20 ul of 5 mg/ml MTT solution to each hole, to continue to culture 4 h, and then draw the culture solution in the hole;
(§3) 4. Add 150 ul of DMSO to each hole, place to a shaker for oscillation 10 min at a low speed, to allow the crystals fully dissolved, measure the absorbance values of each hole at OD 490 nm using a ELISA Reader; at the same time, set the zero hole and control hole.

Assay [2] has as its system Staphylococcus aureus (09B2499). To be noted: 37° C., 24 h.
Protocol: as §5, §6, §7, §8
In a further assay the test system is P. acnes ATCC11817. To be noted: 2 mg/ml ointment on left ear skin, once every 8 h, 3 times, mice sacrificed 24 h later; PEG control 9.44×10^5.
Assay [3] relates to Staphylococcus cohnii (09B2490 anti-ampicillin). To be noted: 37° C., 24 h.
Protocol: as §5, §6, §7, §8
In the next assay the test system is P. acnes ATCC6919. To be noted: 2 mg/ml ointment on left ear skin, treated for 1 day; 0.20 mm before treatment, PEG control 0.43 mm.
Another assay deals with lung cancer cell A549. Description: MTT assay against lung cancer cell A549. The format is cell-based. The protocol:
1. Collect the lung cancer cell A549 in the logarithmic phase to prepare cell suspension, adjust its concentration to 5×10^6-10×10^6/ml, add 100 ul to each hole, pave the plate to adjust the cell density to 1000-10000 holes; fill the holes on the edges with sterile PBS;
2. Incubate cells under the condition of 5% CO2 and 37° C. until the cell monolayer are paved on 96-hole plate bottom; after cell adhesion for 2-12 h, add the low molecular polypeptide ZY4 at a concentration of 100 ug/ml and 200 ug/ml, paclitaxel at a concentration of 10 ug/ml and 5 ug/ml to incubate for 16-48 h under the condition of 5% CO2 and 37° C., and then observe under an inverted microscope;
as §2, §3

Another assay relates to Candida albicans. To be noted: 37° C., 24 h.
In a further assay the test system is Staphylococcus aureus. The settings on record: 37° C., 24 h.
Another assay relates to Escherichia coli. To be noted: 37° C., 24 h.
The test system of assay [4] is Staphylococcus epidermidis (09A3726 anti-ampicillin). The settings on record: 37° C., 24 h.
Protocol: as §5, §6, §7, §8
The subject of another assay is melanoma cell A357. To be noted: NS control 1.0. The protocol: 1. Collect the melanoma cell A357 in the logarithmic phase to prepare cell suspension, adjust its concentration to 5×10^6-10×10^6/ml, add 100 ul to each hole, pave the plate to adjust the cell density to 1000-10000 holes; fill the holes on the edges with sterile PBS;
as §1, §2, §3

Assay [5] has as its system breast cancer cell MDA-435. The protocol: 1. Collect the breast cancer cell MDA-435 in the logarithmic phase to prepare cell suspension, adjust its concentration to 5×10^6-10×10^6/ml, add 100 ul to each hole, pave the plate to adjust the cell density to 1000-10000 holes; fill the holes on the edges with sterile PBS;
(§4) 2. Incubate cells under the condition of 5% CO2 and 37° C. until the cell monolayer are paved on 96-hole plate bottom; after cell adhesion for 2-12 h, add the low molecular polypeptide ZY4 at a concentration of 50-300 ug/ml, and the same volume of NS as control, to incubate for 16-48 h under the condition of 5% CO2 and 37° C., and then observe under an inverted microscope;
as §2, §3

The test system of assay [6] is gastric cancer cell SGC7901. The protocol: 1. Collect the gastric cancer cell SGC7901 in the logarithmic phase to prepare cell suspension, adjust its concentration to 5×10^6-10×10^6/ml, add 100 ul to each hole, pave the plate to adjust the cell density to 1000-10000 holes; fill the holes on the edges with sterile PBS;
as §4, §2, §3

Molecules are shown by their SMILES. Converted amounts (≈) assume the structure as drawn. Like-named read-outs stand apart in the source and are kept apart here.

Protocol for Bacillus subtilis: as §5, §6, §7, §8
Protocol for Candida albicans: as §5, §6, §7, §8
Protocol for Escherichia coli: as §5, §6, §7, §8
Protocol for P. acnes ATCC11817: Select Kunming male mice at a weight of 18 g each, and randomly divide them into 3 groups, 6 mice each group, respectively the treatment group, positive control group, negative control group. Each mouse is anaesthetized with 120 ul of 1% pentobarbital sodium by intraperitoneal injection, and then injected with 20 ul of resuspended bacteria solution via intracutaneous injection in the left ear of each mouse;
Disinfect the left ears of mice with a clean alcohol cotton ball, cut off the left ears into pieces, transfer to a homogenizer for homogenization. Add 1 ml of NS for homogenization for one ear;
Dilute the homogenate to 1,000-fold, take 50 ul of diluent and apply to a brain heart infusion agar plate, culture at 37° C. under the anaerobic condition for 72 h, and count the colonies.
Protocol for P. acnes ATCC6919: Select Kunming male mice at a weight of 18 g each, and randomly divide them into 3 groups, 9 mice each group, respectively the treatment group, positive control group, negative control group. Each mouse is anaesthetized with 50 ul of ketamine by intraperitoneal injection, and then injected with 20 ul of resuspended bacteria solution via intracutaneous injection in the left ear of each mouse;
Disinfect the left ears of mice with a clean alcohol cotton ball, and measure the thickness of the ears of mice, results are shown in FIG. 2.

As for `CC(C)[C@H](N)C(=O)N[C@H]1CSSC[C@@H](C(=O)N[C@H](C(N)=O)C(C)C)NC(=O)[C@H](Cc2c[nH]c3ccccc23)NC(=O)[C@H](CCCCN)NC(=O)[C@H](CCCCN)NC(=O)[C@H](Cc2c[nH]c3ccccc23)NC(=O)[C@H](CCCCN)NC(=O)[C@H](CCCNC(=N)N)NC(=O)[C@H](CCCCN)NC(=O)[C@H](Cc2c[nH]c3ccccc23)NC(=O)[C@H](CCCCN)NC(=O)[C@H](CCCCN)NC(=O)[C@H](Cc2c[nH]c3ccccc23)NC(=O)[C@H](CCCNC(=N)N)NC(=O)[C@H](CCCCN)NC1=O` [ZY4], the Minimum inhibitory concentration in the assay with Bacillus subtilis stood at 1.10 µg/mL (≈ 0.463 µM); in [1] it was 2.17 µg/mL (≈ 0.914 µM); in assay [2] it was 2.25 µg/mL (≈ 0.948 µM); in [3], 1.10 µg/mL (≈ 0.463 µM); with Candida albicans, 2.12 µg/mL (≈ 0.893 µM); with Staphylococcus aureus it was 2.14 µg/mL (≈ 0.901 µM). Besides, the figures for the Minimum inhibitory concentration (with Escherichia coli; in [4]) were 12.15 µg/mL (≈ 5.12 µM) and 2.45 µg/mL (≈ 1.03 µM), respectively. Moreover, the “OD value (MTT, OD 490 nm)” value came to 0.89 with liver cancer cell HepG2 (HepG2, 100 ug/ml ZY4, 16-48 h); 0.6 with liver cancer cell HepG2 (HepG2, 200 ug/ml ZY4, 16-48 h); 0.5 with lung cancer cell A549 (A549, 100 ug/ml ZY4, 16-48 h); 0.3 with lung cancer cell A549 (A549, 200 ug/ml ZY4, 16-48 h); 1.0 in the assay on melanoma cell A357 (A357, 100 ug/ml ZY4, 16-48 h); 0.72 with melanoma cell A357 (A357, 200 ug/ml ZY4, 16-48 h). Further, the “OD value (MTT, OD 490 nm)” value amounted to 0.7 in assay [5] (MDA-435, 50 ug/ml ZY4, 16-48 h); 0.61 in [5] (MDA-435, 100 ug/ml ZY4, 16-48 h); 0.20 in [5] (MDA-435, 200 ug/ml ZY4, 16-48 h); 0.17 in assay [5] (MDA-435, 300 ug/ml ZY4, 16-48 h); 0.65 in assay [6] (SGC7901, 50 ug/ml ZY4, 16-48 h); 0.57 in assay [6] (SGC7901, 100 ug/ml ZY4, 16-48 h). Further, the “OD value (MTT, OD 490 nm)” value is reported as 0.2 in [6] (SGC7901, 200 ug/ml ZY4, 16-48 h) and 0.09 in assay [6] (SGC7901, 300 ug/ml ZY4, 16-48 h). Also, the “CFU of P. acnes after treatment” value in the assay with P. acnes ATCC11817 is recorded as 2.1×10^5 CFU. For the same compound, in the assay with P. acnes ATCC6919, the “thickness of mice ear” value is given as 0.25 mm.

`CC(=O)O[C@H]1C(=O)[C@@]2(C)[C@H]([C@H](OC(=O)c3ccccc3)[C@]3(O)C[C@H](OC(=O)[C@H](O)[C@@H](NC(=O)c4ccccc4)c4ccccc4)C(C)=C1C3(C)C)[C@]1(OC(C)=O)CO[C@@H]1C[C@@H]2O` [paclitaxel, reference compound]: the “OD value (MTT, OD 490 nm)” value is listed as 0.5 with lung cancer cell A549 (A549, 10 ug/ml paclitaxel (first statement), 16-48 h) and 0.7 in the assay with lung cancer cell A549 (A549, 10 ug/ml paclitaxel (second statement), 16-48 h).
